How the values were obtained:
Type in all cases: physicochemical
[1] = Storage of the solid salt at ambient conditions (physical stability / hygroscopicity)
Text: One mesylate crystal form was obtained via screening. Mesylate Type A was generated via reactive crystallization (molar ratio of 1:1) in ethyl acetate/hexane (1:2, v/v) at RT.

[2] = Thermogravimetric analysis (TGA) weight loss of crystalline hits; conditions: for Speculated Form: based on TGA/DSC characterization data
Description: (§1) TGA data were collected using a TA Q500 and Q550 from TA Instruments. DSC was performed using a TA Q2000 from TA Instruments. DSC was calibrated with Indium reference standard and the TGA was calibrated using nickel reference standard.
(§2) All hits were further characterized by TGA and DSC, with the stoichiometry determined by ^1H NMR or HPLC/IC. Based on the characterization data in Table 2 below, most of them were considered to be anhydrates.

[3] = Stoichiometry (acid/freebase) by 1H NMR or HPLC/IC
Text: Solution NMR was collected on Bruker 500M NMR Spectrometer using DMSO-d6 and CD3OD as solvents.
Agilent 1100 HPLC was utilized to analyze the purity and stoichiometry, with detailed method listed in below.
IC method for counter-ion content measurement is listed below.
as §2

[4] = Differential scanning calorimetry (DSC) endotherms of crystalline hits; conditions: onset temperature
Description: as §1, §2

## CCCCc1nc(-c2ccc(OCCCN(CC)CC)cc2)cn1-c1ccc(Oc2ccc(Cl)cc2)cc1.CS(=O)(=O)O [Mesylate Type A]
[1]; ambient conditions
  Storage at ambient conditions: +
[1]; ambient conditions, inferred from conversion to gel
  Hygroscopicity / stability under ambient conditions, as suggested by the gel conversion: highly hygroscopic and unstable
[1]; solid, storage at ambient conditions
  Physical stability of the sample after storage at ambient conditions: converted to gel

## CCCCc1nc(-c2ccc(OCCCN(CC)CC)cc2)cn1-c1ccc(Oc2ccc(Cl)cc2)cc1.O=C1NS(=O)(=O)c2ccccc21 [Saccharinate Type A]
[2]
  TGA Wt. Loss (%): negligible
  Speculated Form: Anhydrate
[3]
  Stoichiometry (acid/base): 1.22
[4]
  DSC Endo. (onset, ° C.): 120.0 °C

## CCCCc1nc(-c2ccc(OCCCN(CC)CC)cc2)cn1-c1ccc(Oc2ccc(Cl)cc2)cc1.COc1cc(C(=O)O)ccc1O [Vanillate Type A]
[2]
  TGA Wt. Loss (%): negligible
  Speculated Form: Anhydrate
[3]
  Stoichiometry (acid/base): 1.04
[4]
  DSC Endo. (onset, ° C.): 99.6 °C
